The numbers were not newly measured in patent US20220193127A1, “IMMUNOTHERAPY FOR OPIOID ADDICTION” (Therapeutic Solutions International, Inc., priority 2020, published 2022), which cites them from elsewhere.

Series [1] has as its system microglial cells. Conditions: for development of neuropathic pain: in vivo; for microglial activation / proinflammatory cytokines: neuropathic pain.
The subject of series [2] is dentate gyrus of the hippocampus.
[3] abbreviates: rats fed for 6 weeks with liquid diet containing moderate doses of ethanol, vs paired controls.

On to `O=C(O)CC(O)(C(=O)O)C(F)C(=O)O` (stereo not drawn) [fluorocitrate], for which, in series [1], the “development of neuropathic pain” value is on record as “suppressing”, the microglial activation entry is recorded as “decrease” and the proinflammatory cytokines result is “inhibit”.
Turning to `CCO` [ethanol], the “neurogenesis within the olfactory bulb” value in series [2] (rat model of alcoholism) was “not affected”. In series [2] (setting [3]), the “decrease in the number of new neurons in the dentate gyrus” value was 66.3% and the “increase in cell death in the dentate gyrus” value was 227-279%.
For the molecule `CCCn1cnc2c1c(=O)n(CCCCC(C)=O)c(=O)n2C` [propentofylline], in series [1], the “development of neuropathic pain” value is recorded as “suppressing”, the microglial activation result was “decrease” and the proinflammatory cytokines entry is reported as “inhibit”.
`CC(=O)CCCCn1c(=O)c2c(ncn2C)n(C)c1=O` [pentoxifylline]: in series [1], the “development of neuropathic pain” value is recorded as “suppressing”, the microglial activation result is reported as “decrease” and the proinflammatory cytokines entry is recorded as “inhibit”.
